Patent publication US10029992B2, “Diaminotriazine compounds and their use as herbicides” (BASF SE, priority 2014, dated 2018)

How the values were obtained:
ALOMY = test: Greenhouse experiment, pre-emergence treatment; assay type: in vivo, Alopecurus myosuroides; details: pre-emergence method
Text: (§1) The culture containers used were plastic flowerpots containing loamy sand with approximately 3.0% of humus as the substrate. The seeds of the test plants were sown separately for each species.
(§2) For the pre-emergence treatment, the active ingredients, which had been suspended or emulsified in water, were applied directly after sowing by means of finely distributing nozzles. The containers were irrigated gently to promote germination and growth and subsequently covered with transparent plastic hoods until the plants had rooted. This cover caused uniform germination of the test plants, unless this had been impaired by the active ingredients.
(§3) Depending on the species, the plants were kept at 10-25° C. or 20-35° C., respectively.
(§4) The test period extended over 2 to 4 weeks. During this time, the plants were tended, and their response to the individual treatments was evaluated.
(§5) Evaluation was carried out using a scale from 0 to 100. 100 means no emergence of the plants, or complete destruction of at least the aerial moieties, and 0 means no damage, or normal course of growth. A moderate herbicidal activity is given at values of at least 60, a good herbicidal activity is given at values of at least 70, and a very good herbicidal activity is given at values of at least 85.
(§6) The plants used in the greenhouse experiments were of the following species: […]

AMARE [1] = test: Greenhouse experiment, pre-emergence treatment; assay type: in vivo, Amaranthus retroflexus; details: pre-emergence method
Text: (§7) The seeds of the test plants were sown separately for each species. For the pre-emergence treatment, the active ingredients, which had been suspended or emulsified in water, were applied directly after sowing by means of finely distributing nozzles. The containers were irrigated gently to promote germination and growth and subsequently covered with transparent plastic hoods until the plants had rooted. This cover caused uniform germination of the test plants, unless this had been impaired by the active ingredients. Depending on the species, the plants were kept at 10-25° C. or 20-35° C., respectively. The test period extended over 2 to 4 weeks. During this time, the plants were tended, and their response to the individual treatments was evaluated. Evaluation was carried out using a scale from 0 to 100. 100 means no emergence of the plants, or complete destruction of at least the aerial moieties, and 0 means no damage, or normal course of growth. A moderate herbicidal activity is given at values of at least 60, a good herbicidal activity is given at values of at least 70, and a very good herbicidal activity is given at values of at least 85. […] [table]

APESV = test: Greenhouse experiment, pre-emergence treatment; assay type: in vivo, Apera spica-venti; details: pre-emergence method
Text: as §1, §2, §3, §4, §5, §6

SETFA [2] = test: Greenhouse experiment, pre-emergence treatment; assay type: in vivo, Setaria faberi; details: pre-emergence method
Text: as §7

ECHCG [3] = test: Greenhouse experiment, pre-emergence treatment; assay type: in vivo, Echinochloa crus-galli; details: pre-emergence method
Text: as §1, §2, §3, §4, §5, §6

CAPBP = test: Greenhouse experiment, post-emergence treatment; assay type: in vivo, Capsella bursa-pastoris; details: post-emergence method, application rate 63 g/ha
Method: (§8) The seeds of the test plants were sown separately for each species. […] For this purpose, the test plants were either sown directly and grown in the same containers, or they were first grown separately as seedlings and transplanted into the test containers a few days prior to treatment. Depending on the species, the plants were kept at 10-25° C. or 20-35° C., respectively. The test period extended over 2 to 4 weeks. During this time, the plants were tended, and their response to the individual treatments was evaluated. Evaluation was carried out using a scale from 0 to 100. 100 means no emergence of the plants, or complete destruction of at least the aerial moieties, and 0 means no damage, or normal course of growth. A moderate herbicidal activity is given at values of at least 60, a good herbicidal activity is given at values of at least 70, and a very good herbicidal activity is given at values of at least 85. […] [table]

STEME = test: Greenhouse experiment, post-emergence treatment; assay type: in vivo, Stellaria media; details: post-emergence method, application rate 63 g/ha
Method: as §8

SETVI = test: Greenhouse experiment, post-emergence treatment; assay type: in vivo, Setaria viridis; details: post-emergence method, application rate 63 g/ha
Method: as §8

AMARE [4] = test: Greenhouse experiment, post-emergence treatment; assay type: in vivo, Amaranthus retroflexus; details: post-emergence method, application rate 125 g/ha
Method: as §8

ABUTH = test: Greenhouse experiment, post-emergence treatment; assay type: in vivo, Abutilon theophrasti; details: post-emergence method, application rate 125 g/ha
Method: as §8

SETFA [5] = test: Greenhouse experiment, post-emergence treatment; assay type: in vivo, Setaria faberi; details: post-emergence method, application rate 125 g/ha
Method: as §8

ECHCG [6] = test: Greenhouse experiment, post-emergence treatment; assay type: in vivo, Echinochloa crus-galli; details: post-emergence method, application rate 125 g/ha
Method: as §8

CC(C)(F)c1nc(N)nc(Nc2c(F)cccc2Oc2ccccc2)n1 [Example 25]
herbicidal activity against ALOMY (ALOMY; application rate 0.25 kg/ha): very good (a very good herbicidal activity is given at values of at least 85)
herbicidal activity against AMARE (AMARE [1]; application rate 0.25 kg/ha): very good (a very good herbicidal activity is given at values of at least 85)
herbicidal activity against APESV (APESV; application rate 0.25 kg/ha): very good (a very good herbicidal activity is given at values of at least 85)

COC(C)(C)c1nc(N)nc(Nc2c(F)cccc2Oc2cc(C)cc(C)c2)n1 [Example 36]
herbicidal activity against ALOMY (ALOMY; application rate 0.25 kg/ha): good (a good herbicidal activity is given at values of at least 70)
herbicidal activity against SEFTA (SETFA [2]; application rate 1000 g/ha): very good (a very good herbicidal activity is given at values of at least 85)
herbicidal activity against APESV (APESV; application rate 0.25 kg/ha): very good (a very good herbicidal activity is given at values of at least 85)
herbicidal activity against APESV (APESV; application rate 1000 g/ha): very good (a very good herbicidal activity is given at values of at least 85)
herbicidal activity against ECHCG (ECHCG [3]; application rate 1000 g/ha): very good (a very good herbicidal activity is given at values of at least 85)

CC(C)(F)c1nc(N)nc(Nc2c(F)cccc2Oc2cc(C(F)(F)F)cc(C(F)(F)F)c2)n1 [Example 52]
herbicidal activity against CAPBP (CAPBP): very good (a very good herbicidal activity is given at values of at least 85)
herbicidal activity against STEME (STEME): very good (a very good herbicidal activity is given at values of at least 85)
herbicidal activity against SETVI (SETVI): very good (a very good herbicidal activity is given at values of at least 85)

CC(C)(F)c1nc(N)nc(Nc2c(F)cccc2Oc2cc(Br)cc(Br)c2)n1 [Example 55]
herbicidal activity against AMARE (AMARE [4]): very good (a very good herbicidal activity is given at values of at least 85)
herbicidal activity against ABUTH (ABUTH): very good (a very good herbicidal activity is given at values of at least 85)
herbicidal activity against SETFA (SETFA [5]): very good (a very good herbicidal activity is given at values of at least 85)

CC(C)(F)c1nc(N)nc(Nc2c(F)cccc2Oc2cc(F)cc(Br)c2)n1 [Example 56]
herbicidal activity against AMARE (AMARE [4]): very good (a very good herbicidal activity is given at values of at least 85)
herbicidal activity against ABUTH (ABUTH): good (a good herbicidal activity is given at values of at least 70)
herbicidal activity against SETFA (SETFA [5]): very good (a very good herbicidal activity is given at values of at least 85)

COc1cc(Cl)cc(Oc2cccc(F)c2Nc2nc(N)nc(C(C)(C)F)n2)c1 [Example 57]
herbicidal activity against AMARE (AMARE [4]): very good (a very good herbicidal activity is given at values of at least 85)
herbicidal activity against ABUTH (ABUTH): very good (a very good herbicidal activity is given at values of at least 85)
herbicidal activity against SETFA (SETFA [5]): very good (a very good herbicidal activity is given at values of at least 85)

CC(C)(F)c1nc(N)nc(Nc2c(F)cccc2Oc2cc(Cl)cc(Br)c2)n1 [Example 58]
herbicidal activity against AMARE (AMARE [4]): very good (a very good herbicidal activity is given at values of at least 85)
herbicidal activity against ABUTH (ABUTH): very good (a very good herbicidal activity is given at values of at least 85)
herbicidal activity against SETFA (SETFA [5]): very good (a very good herbicidal activity is given at values of at least 85)

CC(C)(F)c1nc(N)nc(Nc2c(F)cccc2Oc2cc(F)cc(C#N)c2)n1 [Example 59]
herbicidal activity against AMARE (AMARE [4]): very good (a very good herbicidal activity is given at values of at least 85)
herbicidal activity against ABUTH (ABUTH): very good (a very good herbicidal activity is given at values of at least 85)
herbicidal activity against SETFA (SETFA [5]): very good (a very good herbicidal activity is given at values of at least 85)

CC(C)(F)c1nc(N)nc(Nc2c(F)cccc2Oc2cc(Br)cc(OC(F)(F)F)c2)n1 [Example 60]
herbicidal activity against AMARE (AMARE [4]): very good (a very good herbicidal activity is given at values of at least 85)
herbicidal activity against ABUTH (ABUTH): very good (a very good herbicidal activity is given at values of at least 85)
herbicidal activity against SETFA (SETFA [5]): very good (a very good herbicidal activity is given at values of at least 85)

COc1cc(Br)cc(Oc2cccc(F)c2Nc2nc(N)nc(C(C)(C)F)n2)c1 [Example 61]
herbicidal activity against AMARE (AMARE [4]): very good (a very good herbicidal activity is given at values of at least 85)
herbicidal activity against ABUTH (ABUTH): very good (a very good herbicidal activity is given at values of at least 85)
herbicidal activity against SETFA (SETFA [5]): very good (a very good herbicidal activity is given at values of at least 85)

COc1cc(F)cc(Oc2cccc(F)c2Nc2nc(N)nc(C(C)(C)F)n2)c1 [Example 62]
herbicidal activity against AMARE (AMARE [4]): very good (a very good herbicidal activity is given at values of at least 85)
herbicidal activity against ABUTH (ABUTH): very good (a very good herbicidal activity is given at values of at least 85)
herbicidal activity against SETFA (SETFA [5]): very good (a very good herbicidal activity is given at values of at least 85)

COc1cc(C)cc(Oc2cccc(F)c2Nc2nc(N)nc(C(C)(C)F)n2)c1 [Example 63]
herbicidal activity against AMARE (AMARE [4]): very good (a very good herbicidal activity is given at values of at least 85)
herbicidal activity against ECHCG (ECHCG [6]): very good (a very good herbicidal activity is given at values of at least 85)
herbicidal activity against SETFA (SETFA [5]): very good (a very good herbicidal activity is given at values of at least 85)

COc1cc(Oc2cccc(F)c2Nc2nc(N)nc(C(C)(C)F)n2)cc(C(F)(F)F)c1 [Example 65]
herbicidal activity against ECHCG (ECHCG [6]): very good (a very good herbicidal activity is given at values of at least 85)
herbicidal activity against ABUTH (ABUTH): very good (a very good herbicidal activity is given at values of at least 85)
herbicidal activity against SETFA (SETFA [5]): very good (a very good herbicidal activity is given at values of at least 85)

CC(C)(F)c1nc(N)nc(Nc2c(F)cccc2Oc2cc(I)cc(I)c2)n1 [Example 67]
herbicidal activity against ECHCG (ECHCG [6]): good (a good herbicidal activity is given at values of at least 70)
herbicidal activity against SETFA (SETFA [5]): good (a good herbicidal activity is given at values of at least 70)

CCOc1cc(OCC)cc(Oc2cccc(F)c2Nc2nc(N)nc(C(C)(C)F)n2)c1 [Example 68]
herbicidal activity against ECHCG (ECHCG [6]): very good (a very good herbicidal activity is given at values of at least 85)
herbicidal activity against ABUTH (ABUTH): very good (a very good herbicidal activity is given at values of at least 85)
herbicidal activity against SETFA (SETFA [5]): very good (a very good herbicidal activity is given at values of at least 85)

CC(C)Oc1cc(F)cc(Oc2cccc(F)c2Nc2nc(N)nc(C(C)(C)F)n2)c1 [Example 99]
herbicidal activity against ALOMY (ALOMY; application rate 500 g/ha): very good (a very good herbicidal activity is given at values of at least 85)
herbicidal activity against AMARE (AMARE [1]; application rate 500 g/ha): very good (a very good herbicidal activity is given at values of at least 85)
herbicidal activity against ECHCG (ECHCG [3]; application rate 500 g/ha): very good (a very good herbicidal activity is given at values of at least 85)

CC(C)(F)c1nc(N)nc(Nc2c(F)cccc2Oc2cc(F)cc(I)c2)n1 [Example 101]
herbicidal activity against ALOMY (ALOMY; application rate 250 g/ha): good (a good herbicidal activity is given at values of at least 70)
herbicidal activity against SEFTA (SETFA [2]; application rate 250 g/ha): very good (a very good herbicidal activity is given at values of at least 85)
herbicidal activity against ECHCG (ECHCG [3]; application rate 250 g/ha): very good (a very good herbicidal activity is given at values of at least 85)
